Source: PMC5061470, “Promiscuous targeting of bromodomains by bromosporine identifies BET proteins as master regulators of primary transcription response in leukemia” (Science Advances, 2016)

Experiments:
BAZ2A = molecular target: T1, BAZ2A (Homo sapiens, UniProt Q9UIF9); type: binding
T1 construct: Human BRDs were subcloned into bacteria-expressing vectors; made in house
T1 sequence (Q9UIF9 1793-1897 limits assumed): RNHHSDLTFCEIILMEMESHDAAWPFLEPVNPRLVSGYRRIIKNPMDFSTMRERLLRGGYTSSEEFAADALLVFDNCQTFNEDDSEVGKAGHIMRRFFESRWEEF

BRD1 = BRD1 (Homo sapiens, UniProt O95696); type: binding
BRD4(1) = BRD4(1) (Homo sapiens, UniProt O60885); type: binding
BRD9 = molecular target: T2, BRD9 (Homo sapiens, UniProt Q9H8M2); type: binding
T2 sequence (Q9H8M2 136-240 limits assumed): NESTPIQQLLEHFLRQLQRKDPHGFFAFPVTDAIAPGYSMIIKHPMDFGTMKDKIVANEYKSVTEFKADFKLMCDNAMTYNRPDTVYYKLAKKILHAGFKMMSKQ

CECR2 = CECR2 (Homo sapiens, UniProt Q9BXF3); type: binding
PCAF = molecular target: T3, PCAF (Homo sapiens, UniProt Q92831); type: binding
T3 sequence (Q92831 723-827 limits assumed): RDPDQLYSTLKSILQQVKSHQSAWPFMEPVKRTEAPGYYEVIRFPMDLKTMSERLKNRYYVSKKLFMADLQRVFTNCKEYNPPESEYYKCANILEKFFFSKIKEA

KASUMI-1 = experiment: cells; type: cell-based, human; settings: Homo sapiens, Kasumi 1, 72 h, read-out: IC50, cell proliferation
OCI-AML3 = experiment: cells; type: cell-based, human; settings: Homo sapiens, OCI-AML-3, 72 h, read-out: IC50, cell proliferation
K562 = type: cell-based, human
NMDA = experiment: CEREP binding, antagonist radioligand
CCR2 (h) = CCR2 (h) (Homo sapiens, UniProt P41597); experiment: CEREP binding, agonist radioligand; settings: read-out: % Inhibition of Control Specific Binding
CysLT1 (LTD4) (h) = CysLT1 (LTD4) (h) (Homo sapiens, UniProt Q9Y271); experiment: biochemical; settings: read-out: % Inhibition of Control Specific Binding
MCH1 (h) = MCH1 (h) (Homo sapiens, UniProt Q99705); experiment: biochemical; settings: read-out: % Inhibition of Control Specific Binding
MT3 (ML2) = MT3 (ML2) (Mesocricetus auratus, UniProt A0ABM2YAB8); experiment: biochemical; type: binding; settings: read-out: % Inhibition of Control Specific Binding
MAO-A = MAO-A (Rattus norvegicus, UniProt P21396); experiment: biochemical; settings: read-out: % Inhibition of Control Specific Binding
NK2 (h) = NK2 (h) (Homo sapiens, UniProt P21452); experiment: biochemical; settings: read-out: % Inhibition of Control Specific Binding
[1] = molecular target: N neuronal alpha 4beta 2 (h) (Homo sapiens, UniProt P17787+P43681); experiment: biochemical; settings: read-out: % Inhibition of Control Specific Binding
N muscle-type (h) = N muscle-type (h) (Homo sapiens, UniProt P02708+P07510+Q07001); experiment: biochemical; settings: read-out: % Inhibition of Control Specific Binding
sst1 (h) = sst1 (h) (Homo sapiens, UniProt P30872); experiment: biochemical; settings: read-out: % Inhibition of Control Specific Binding
[2] = molecular target: Ca2+ channel (L, dihydropyridine site) (Rattus norvegicus, UniProt P22002); experiment: biochemical; settings: read-out: % Inhibition of Control Specific Binding
Cl- channel (GABA-gated) = type: binding
BRD4(2) = BRD4(2) (Homo sapiens, UniProt O60885)
A3 (h) = A3 (h) (Homo sapiens, UniProt P0DMS8); experiment: biochemical; settings: read-out: % Inhibition of Control Specific Binding
beta 1 (h) = beta 1 (h) (Homo sapiens, UniProt P08588); experiment: biochemical; settings: read-out: % Inhibition of Control Specific Binding
CCK1 (CCKA) (h) = CCK1 (CCKA) (h) (Homo sapiens, UniProt P32238); experiment: biochemical; settings: read-out: % Inhibition of Control Specific Binding
M2 (h) = M2 (h) (Homo sapiens, UniProt P08172); experiment: biochemical; settings: read-out: % Inhibition of Control Specific Binding
5-HT7 (h) = 5-HT7 (h) (Homo sapiens, UniProt P34969); experiment: biochemical; settings: read-out: % Inhibition of Control Specific Binding
[3] = molecular target: norepinephrine transporter (h) (Homo sapiens, UniProt P23975); experiment: biochemical; settings: read-out: % Inhibition of Control Specific Binding
Chain of norepinephrine transporter (h) (P23975 whole entry): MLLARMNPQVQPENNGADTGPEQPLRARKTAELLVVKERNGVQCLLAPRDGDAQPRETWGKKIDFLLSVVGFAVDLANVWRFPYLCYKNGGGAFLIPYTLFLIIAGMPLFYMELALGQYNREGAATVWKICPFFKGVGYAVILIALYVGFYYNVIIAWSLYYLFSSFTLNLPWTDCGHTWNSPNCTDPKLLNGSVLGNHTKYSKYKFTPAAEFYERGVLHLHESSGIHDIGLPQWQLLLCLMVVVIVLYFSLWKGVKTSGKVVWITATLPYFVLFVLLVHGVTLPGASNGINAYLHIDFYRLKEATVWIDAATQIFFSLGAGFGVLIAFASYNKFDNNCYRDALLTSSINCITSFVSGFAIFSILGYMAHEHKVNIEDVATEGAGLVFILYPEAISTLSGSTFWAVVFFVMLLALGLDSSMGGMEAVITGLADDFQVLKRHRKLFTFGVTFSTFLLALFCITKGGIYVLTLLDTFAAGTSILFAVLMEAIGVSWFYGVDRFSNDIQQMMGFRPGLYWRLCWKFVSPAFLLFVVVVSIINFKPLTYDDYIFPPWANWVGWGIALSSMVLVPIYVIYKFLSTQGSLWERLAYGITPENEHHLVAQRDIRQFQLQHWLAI

Chain of BRD1 (O95696 562-666): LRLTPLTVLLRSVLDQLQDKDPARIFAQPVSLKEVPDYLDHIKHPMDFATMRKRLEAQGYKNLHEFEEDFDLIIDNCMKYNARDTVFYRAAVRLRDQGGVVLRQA
Chain of CECR2 (Q9BXF3 434-538 limits assumed): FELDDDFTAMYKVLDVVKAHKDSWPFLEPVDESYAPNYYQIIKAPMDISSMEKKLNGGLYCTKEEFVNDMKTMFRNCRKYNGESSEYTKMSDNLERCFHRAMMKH
Chain of N muscle-type (h) (P07510 23-517): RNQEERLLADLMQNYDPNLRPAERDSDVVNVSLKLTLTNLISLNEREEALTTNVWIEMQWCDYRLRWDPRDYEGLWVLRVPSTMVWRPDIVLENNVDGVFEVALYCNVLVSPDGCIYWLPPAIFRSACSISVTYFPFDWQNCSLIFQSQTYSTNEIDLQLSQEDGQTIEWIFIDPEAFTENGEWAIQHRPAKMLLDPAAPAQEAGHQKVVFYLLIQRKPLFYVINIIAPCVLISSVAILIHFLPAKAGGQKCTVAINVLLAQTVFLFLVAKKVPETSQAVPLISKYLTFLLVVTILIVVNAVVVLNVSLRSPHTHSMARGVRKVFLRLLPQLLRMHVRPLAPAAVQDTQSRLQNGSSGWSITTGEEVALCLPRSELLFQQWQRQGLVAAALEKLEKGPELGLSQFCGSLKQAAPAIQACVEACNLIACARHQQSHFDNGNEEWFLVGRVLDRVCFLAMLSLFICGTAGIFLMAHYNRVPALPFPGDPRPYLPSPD
Chain of N muscle-type (h) (Q07001 22-517): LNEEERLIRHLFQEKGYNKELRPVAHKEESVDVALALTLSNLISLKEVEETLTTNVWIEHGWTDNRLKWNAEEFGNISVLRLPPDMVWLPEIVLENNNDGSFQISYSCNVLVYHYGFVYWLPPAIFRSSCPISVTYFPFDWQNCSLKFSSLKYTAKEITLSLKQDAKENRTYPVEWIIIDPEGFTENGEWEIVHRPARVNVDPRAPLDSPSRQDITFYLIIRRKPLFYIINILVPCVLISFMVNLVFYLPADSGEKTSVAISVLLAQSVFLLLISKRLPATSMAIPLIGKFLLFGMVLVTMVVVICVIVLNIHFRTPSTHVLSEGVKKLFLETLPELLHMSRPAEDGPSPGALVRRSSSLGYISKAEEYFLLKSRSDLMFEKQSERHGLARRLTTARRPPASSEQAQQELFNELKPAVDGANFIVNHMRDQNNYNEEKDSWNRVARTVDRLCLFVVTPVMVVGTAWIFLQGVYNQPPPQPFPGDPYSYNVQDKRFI
Chain of N muscle-type (h) (P02708 21-457): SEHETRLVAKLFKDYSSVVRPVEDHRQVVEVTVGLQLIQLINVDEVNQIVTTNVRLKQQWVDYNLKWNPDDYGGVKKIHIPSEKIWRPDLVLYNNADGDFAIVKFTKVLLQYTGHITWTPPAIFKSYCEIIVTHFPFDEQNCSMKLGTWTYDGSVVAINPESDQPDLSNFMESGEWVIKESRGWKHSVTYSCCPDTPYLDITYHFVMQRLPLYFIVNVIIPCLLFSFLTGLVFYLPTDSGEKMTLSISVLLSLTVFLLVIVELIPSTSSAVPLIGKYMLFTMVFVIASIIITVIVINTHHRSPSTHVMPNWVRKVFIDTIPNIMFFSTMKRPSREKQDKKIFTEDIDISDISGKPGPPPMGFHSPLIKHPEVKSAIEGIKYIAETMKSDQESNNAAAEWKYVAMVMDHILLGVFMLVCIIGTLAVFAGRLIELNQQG
Chain of N muscle-type (h) (P11230 24-501, further chain): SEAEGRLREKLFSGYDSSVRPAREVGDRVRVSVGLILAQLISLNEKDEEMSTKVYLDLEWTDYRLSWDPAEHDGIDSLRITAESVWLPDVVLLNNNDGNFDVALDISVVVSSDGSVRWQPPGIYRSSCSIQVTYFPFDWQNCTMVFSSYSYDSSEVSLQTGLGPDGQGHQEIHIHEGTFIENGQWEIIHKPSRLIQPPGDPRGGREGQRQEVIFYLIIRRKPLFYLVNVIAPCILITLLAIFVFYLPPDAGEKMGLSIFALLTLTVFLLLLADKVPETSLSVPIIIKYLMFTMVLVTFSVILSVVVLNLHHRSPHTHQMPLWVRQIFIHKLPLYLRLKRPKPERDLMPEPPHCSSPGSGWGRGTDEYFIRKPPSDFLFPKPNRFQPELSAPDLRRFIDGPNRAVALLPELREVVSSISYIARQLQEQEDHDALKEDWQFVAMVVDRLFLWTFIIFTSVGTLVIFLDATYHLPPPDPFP
Chain of MAO-A (P21396 whole entry, looked up): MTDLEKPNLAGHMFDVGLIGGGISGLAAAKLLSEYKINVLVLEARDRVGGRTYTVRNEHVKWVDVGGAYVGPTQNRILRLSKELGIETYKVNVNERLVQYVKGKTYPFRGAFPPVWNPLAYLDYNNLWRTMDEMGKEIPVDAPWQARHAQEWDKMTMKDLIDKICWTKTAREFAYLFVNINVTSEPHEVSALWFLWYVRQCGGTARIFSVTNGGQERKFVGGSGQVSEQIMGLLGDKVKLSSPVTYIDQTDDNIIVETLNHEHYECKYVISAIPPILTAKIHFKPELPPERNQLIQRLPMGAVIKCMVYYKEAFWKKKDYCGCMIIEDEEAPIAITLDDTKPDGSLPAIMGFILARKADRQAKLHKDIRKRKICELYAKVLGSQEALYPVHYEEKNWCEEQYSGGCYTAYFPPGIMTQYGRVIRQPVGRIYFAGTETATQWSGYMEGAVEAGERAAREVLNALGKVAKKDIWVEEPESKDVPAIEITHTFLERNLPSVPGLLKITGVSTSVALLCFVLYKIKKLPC
Chain of CysLT1 (LTD4) (h) (Q9Y271 whole entry): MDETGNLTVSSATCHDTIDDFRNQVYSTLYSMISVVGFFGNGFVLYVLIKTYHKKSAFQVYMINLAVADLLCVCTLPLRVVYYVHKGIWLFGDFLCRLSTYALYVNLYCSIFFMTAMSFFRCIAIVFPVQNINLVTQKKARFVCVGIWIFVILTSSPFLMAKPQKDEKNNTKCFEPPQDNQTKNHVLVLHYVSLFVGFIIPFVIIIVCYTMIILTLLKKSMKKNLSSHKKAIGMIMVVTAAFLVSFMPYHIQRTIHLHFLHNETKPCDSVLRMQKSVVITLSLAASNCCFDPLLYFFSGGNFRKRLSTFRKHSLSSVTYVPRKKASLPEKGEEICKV
Chain of beta 1 (h) (P08588 whole entry): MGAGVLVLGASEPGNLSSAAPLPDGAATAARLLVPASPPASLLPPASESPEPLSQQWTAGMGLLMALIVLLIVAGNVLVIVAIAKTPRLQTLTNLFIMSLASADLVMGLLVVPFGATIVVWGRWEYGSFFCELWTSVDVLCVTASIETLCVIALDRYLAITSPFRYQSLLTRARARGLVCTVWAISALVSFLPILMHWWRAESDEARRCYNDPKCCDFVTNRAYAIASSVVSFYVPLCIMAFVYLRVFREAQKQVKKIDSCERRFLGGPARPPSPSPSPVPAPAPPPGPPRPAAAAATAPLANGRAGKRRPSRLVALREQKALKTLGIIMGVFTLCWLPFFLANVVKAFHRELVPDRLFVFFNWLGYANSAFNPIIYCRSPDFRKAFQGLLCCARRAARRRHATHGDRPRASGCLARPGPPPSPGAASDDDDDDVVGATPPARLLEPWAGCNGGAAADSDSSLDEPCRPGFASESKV
Chain of CCR2 (h) (P41597 whole entry): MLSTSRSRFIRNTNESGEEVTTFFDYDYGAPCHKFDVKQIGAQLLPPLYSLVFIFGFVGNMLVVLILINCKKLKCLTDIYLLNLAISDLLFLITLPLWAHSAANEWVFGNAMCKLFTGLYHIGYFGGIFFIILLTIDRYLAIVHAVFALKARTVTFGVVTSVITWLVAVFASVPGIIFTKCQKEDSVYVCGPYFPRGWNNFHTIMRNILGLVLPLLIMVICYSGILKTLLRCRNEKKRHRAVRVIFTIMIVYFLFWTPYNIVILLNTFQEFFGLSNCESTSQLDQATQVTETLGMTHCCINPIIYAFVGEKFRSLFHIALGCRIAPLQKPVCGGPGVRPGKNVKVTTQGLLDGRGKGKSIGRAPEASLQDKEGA
Chain of sst1 (h) (P30872 whole entry): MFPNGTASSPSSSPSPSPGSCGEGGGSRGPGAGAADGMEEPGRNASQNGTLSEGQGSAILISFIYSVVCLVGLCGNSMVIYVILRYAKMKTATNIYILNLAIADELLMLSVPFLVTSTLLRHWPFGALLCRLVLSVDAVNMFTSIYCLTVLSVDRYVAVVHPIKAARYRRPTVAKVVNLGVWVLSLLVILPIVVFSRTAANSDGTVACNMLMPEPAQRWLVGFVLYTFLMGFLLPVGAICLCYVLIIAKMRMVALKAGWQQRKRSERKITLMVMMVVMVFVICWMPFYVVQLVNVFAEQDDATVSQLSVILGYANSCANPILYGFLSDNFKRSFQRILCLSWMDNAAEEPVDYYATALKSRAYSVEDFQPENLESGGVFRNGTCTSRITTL

CCOC(=O)Nc1cc(-c2ccc(C)c(NS(C)(=O)=O)c2)nn2c(C)nnc12 [BSP, ethyl (3-methyl-6-(4-methyl-3-(methylsulfonamido)phenyl)-[1,2,4]triazolo[4,3-b]pyridazin-8-yl)carbamate] was tested, and the N (BAZ2A) was 1.05 ± 0.025, the TΔS (BAZ2A) was 4.12 kcal/mol and the ΔG (BAZ2A) was -7.16 kcal/mol. For the same compound, the “ΔH^obs” value (BAZ2A) was -3.04 ± 0.095 kcal/mol, the N (BRD1) was 1.01 ± 0.008 and the TΔS (BRD1) was 0.30 kcal/mol. For the same compound, the ΔG (BRD1) was -7.62 kcal/mol, the “ΔH^obs” value (BRD1) was -7.32 ± 0.078 kcal/mol and the N (BRD4(1)) was 0.94 ± 0.002. For the same compound, the TΔS (BRD4(1)) was -1.36 kcal/mol, the “ΔH^obs” value (BRD4(1)) was -11.09 ± 0.038 kcal/mol and the N (BRD9) was 1.00 ± 0.002. The TΔS (BRD9) was 0.98 kcal/mol, the ΔG (BRD9) was -9.73 kcal/mol and the “ΔH^obs” value (BRD9) was -8.75 ± 0.039 kcal/mol. The N (CECR2) was 1.04 ± 0.002, the TΔS (CECR2) was -6.60 kcal/mol and the ΔG (CECR2) was -10.68 kcal/mol. The “ΔH^obs” value (CECR2) was -17.28 ± 0.062 kcal/mol, the N (PCAF) was 0.95 ± 0.044 and the TΔS (PCAF) was -0.83 kcal/mol. For the same compound, the ΔG (PCAF) was -7.02 kcal/mol, the “ΔH^obs” value (PCAF) was -7.85 ± 0.454 kcal/mol and the IC50 (KASUMI-1) was 207 nM. The IC50 (OCI-AML3) was 399 nM, the “effect on cell proliferation” value (K562) was “No significant effect” and the “% Inhibition of Control Specific Binding” value (NMDA) was -2. It also gave an inhibition at 10 µM (CCR2 (h)) of -8%, an inhibition at 10 µM (CysLT1 (LTD4) (h)) of -20% and an inhibition at 10 µM (MCH1 (h)) of 17%. It also gave an inhibition at 10 µM (MT3 (ML2)) of 103%, an inhibition at 10 µM (MAO-A) of 7% and an inhibition at 10 µM (NK2 (h)) of 6%. For the same compound, the inhibition at 10 µM [1] was -7%, the inhibition at 10 µM (N muscle-type (h)) was -7% and the inhibition at 10 µM (sst1 (h)) was -6%. The inhibition at 10 µM [2] was -4%, the “% Inhibition of Control Specific Binding” value (Cl- channel (GABA-gated)) was 39 and the N (BRD4(2)) was 0.94 ± 0.001. For the same compound, the TΔS (BRD4(2)) was 3.17 kcal/mol, the ΔG (BRD4(2)) was -9.77 kcal/mol and the “ΔH^obs” value (BRD4(2)) was -6.60 ± 0.018 kcal/mol. The inhibition at 10 µM (A3 (h)) was 100%, the inhibition at 10 µM (beta 1 (h)) was 4% and the inhibition at 10 µM (CCK1 (CCKA) (h)) was -8%. The inhibition at 10 µM (M2 (h)) was 12%, the inhibition at 10 µM (5-HT7 (h)) was 7% and the inhibition at 10 µM [3] was -20%.
